# From patent US11142515B2, “Pyrazolyl-ureas as kinase inhibitors” (RESPIVERT LIMITED, priority 2014, dated 2021)
# What was measured:
# [1] = target: T1, p38 MAPKα isoform (MAPK14) (Homo sapiens, UniProt Q16539); experiment: p38 MAPKα enzyme inhibition (Z-LYTE FRET); format: biochemical; conditions: Table 2B, unit inferred; read-out: p38 MAPKα (Enzyme Profile)
# T1 construct: purchased Life Technologies
# Procedure: The enzyme inhibitory activities of compounds disclosed herein were determined by FRET using synthetic peptides labelled with both donor and acceptor fluorophores (Z-LYTE, Life Technologies, Paisley, UK).
# The inhibitory activities of compounds of the invention against the p38 MAPKα isoform (MAPK14: Life Technologies), were evaluated indirectly by determining the level of activation/phosphorylation of the target peptide of the p38 MAPKα down-stream molecule, MAPKAP-K2. The enzyme (40 ng/mL, 2.5 μL) was incubated with the test compound (2.5 μL of either 40 μg/mL, 12 μg/mL, 4 μg/mL, 1.2 μg/mL, 0.4 μg/mL, 0.12 μg/mL, 0.04 μg/mL, 0.012 μg/mL, 0.004 μg/mL or 0.0012 μg/mL) for 2 h at RT. […] Development reagent (protease, 5 μL) was added for 1 h prior to detection in a fluorescence microplate reader (EnVision, Perkin Elmer, Waltham, Mass., USA).
# In all cases, the site-specific protease cleaves non-phosphorylated peptide only and eliminates the FRET signal. Phosphorylation levels of each reaction were calculated using the ratio of coumarin emission (donor) over fluorescein emission (acceptor), for which low ratios indicate high phosphorylation and high ratios indicate low phosphorylation levels.
# p38MAPKγ (MAPK12) = target: T2, p38MAPKγ (MAPK12) (Homo sapiens, UniProt P53778); experiment: p38 MAPKγ enzyme inhibition (Z-LYTE FRET); format: biochemical; conditions: Table 2B, unit inferred; read-out: p38 MAPKγ (Enzyme Profile)
# T2 construct: purchased Life Technologies
# T2 sequence (P53778 1-367): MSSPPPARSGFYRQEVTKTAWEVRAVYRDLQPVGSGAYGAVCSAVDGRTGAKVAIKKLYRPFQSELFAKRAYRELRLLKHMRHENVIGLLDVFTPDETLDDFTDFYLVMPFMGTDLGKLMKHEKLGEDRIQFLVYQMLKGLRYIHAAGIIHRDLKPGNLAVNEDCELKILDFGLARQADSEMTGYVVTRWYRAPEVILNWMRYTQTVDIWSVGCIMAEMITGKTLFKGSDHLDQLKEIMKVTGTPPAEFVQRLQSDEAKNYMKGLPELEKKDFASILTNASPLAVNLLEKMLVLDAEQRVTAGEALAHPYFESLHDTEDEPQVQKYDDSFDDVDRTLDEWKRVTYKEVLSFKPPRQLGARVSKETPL
# In short: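 Z-LYTE read-out: after 1 h protease development, only non-phosphorylated peptide is cleaved, and the donor/acceptor (coumarin/fluorescein) ratio reports phosphorylation. Beforehand, enzyme and compound (stock concentrations 0.0012–40 μg/mL) were preincubated 2 h at RT, then the kinase reaction ran 1 h at RT with peptide and ATP (8 μM and 400 μM stocks).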
# T1 sequence (Q16539 whole entry, canonical isoform): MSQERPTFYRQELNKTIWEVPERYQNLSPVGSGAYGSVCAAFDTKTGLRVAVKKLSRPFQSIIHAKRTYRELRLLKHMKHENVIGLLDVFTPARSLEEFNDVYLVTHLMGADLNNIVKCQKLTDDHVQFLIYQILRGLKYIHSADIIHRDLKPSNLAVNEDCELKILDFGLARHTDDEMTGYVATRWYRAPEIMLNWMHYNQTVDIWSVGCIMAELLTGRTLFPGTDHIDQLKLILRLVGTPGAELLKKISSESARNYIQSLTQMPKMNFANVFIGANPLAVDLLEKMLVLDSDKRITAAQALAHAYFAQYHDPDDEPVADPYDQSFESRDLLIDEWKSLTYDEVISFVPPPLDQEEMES
SMILES,IC50 [1] [nM],IC50 (p38MAPKγ (MAPK12)) [nM]
"CCc1cnc(Nc2cc(COc3ccc(NC(=O)Nc4cc(C(C)(C)C)nn4-c4ccc(C)c(C)c4)c4ccccc34)ccn2)cn1 [Example 151, 1-(3-(tert-butyl)-1-(3,4-dimethylphenyl)-1H-pyrazol-5-yl)-3-(4-((2-((5-ethylpyrazin-2-yl)amino)pyridin-4-yl)methoxy)naphthalen-1-yl)urea]",35,439
"COc1cc(-n2nc(C(C)(C)C)cc2NC(=O)Nc2ccc(OCc3ccnc(Nc4cnc(C(=O)N5CCCC5)cn4)c3)c3ccccc23)ccc1C [Example 226, 1-(3-(tert-butyl)-1-(3-methoxy-4-methylphenyl)-1H-pyrazol-5-yl)-3-(4-((2-((5-(pyrrolidine-1-carbonyl)pyrazin-2-yl)amino)pyridin-4-yl)methoxy)naphthalen-1-yl)urea]",35,> 13800
"CCOc1cccc(-n2nc(C(C)(C)C)cc2NC(=O)Nc2ccc(OCc3ccnc(Nc4cnccn4)c3)c3ccccc23)c1 [Example 184, 1-(3-(tert-butyl)-1-(3-ethoxyphenyl)-1H-pyrazol-5-yl)-3-(4-((2-(pyrazin-2-ylamino)pyridin-4-yl)methoxy)naphthalen-1-yl) urea]",19,> 15900
"Cc1ccc(-n2nc(C(C)(C)C)cc2NC(=O)Nc2ccc(OCc3ccnc(Nc4cnc(C(=O)N5C[C@@H](C)O[C@@H](C)C5)cn4)c3)c3ccccc23)cc1 [Example 214, 1-(3-(tert-butyl)-1-(p-tolyl)-1H-pyrazol-5-yl)-3-(4-((2-((5-((2S,6R)-2,6-dimethyl-morpholine-4-carbonyl)pyrazin-2-yl)amino)pyridin-4-yl)methoxy)naphthalen-1-yl)urea]",31,1930
"COCc1cnc(Nc2cc(COc3ccc(NC(=O)Nc4cc(C(C)(C)C)nn4-c4ccc(C)cc4)c4ccccc34)ccn2)cn1 [Example 190, 1-(3-(tert-butyl)-1-(p-tolyl)-1H-pyrazol-5-yl)-3-(4-((2-((5-(methoxymethyl)pyrazin-2-yl)amino)pyridin-4-yl)methoxy)naphthalen-1-yl) urea]",23,232
CO[C@@H]1CCN(C(=O)c2cnc(Nc3cc(COc4ccc(NC(=O)Nc5cc(C(C)(C)C)nn5-c5ccc(C)cc5)c5ccccc45)ccn3)cn2)C1 [Example 66],28,319
"CCCc1cncc(Nc2cc(COc3ccc(NC(=O)Nc4cc(C(C)(C)C)nn4-c4cccc(OC)c4)c4ccccc34)ccn2)n1 [Example 189, 1-(3-(tert-butyl)-1-(3-methoxyphenyl)-1H-pyrazol-5-yl)-3-(4-((2-((6-propyl-pyrazin-2-yl)amino)pyridin-4-yl)methoxy)naphthalen-1-yl)urea]",72,579
"CCc1cncc(Nc2cc(COc3ccc(NC(=O)Nc4cc(C(C)(C)C)nn4-c4ccc(COC)cc4)c4ccccc34)ccn2)n1 [Example 210, 1-(3-(tert-butyl)-1-(4-(methoxymethyl)phenyl)-1H-pyrazol-5-yl)-3-(4-((2-((6-ethylpyrazin-2-yl)amino)pyridin-4-yl)methoxy)naphthalen-1-yl)urea]",28,509
COCc1cccc(-n2nc(C(C)(C)C)cc2NC(=O)Nc2ccc(OCc3ccnc(Nc4cnc(C(=O)N5CCCC5)cn4)c3)c3ccccc23)c1 [Example 71],24,272
"Cc1ccc(-n2nc(C(C)(C)C)cc2NC(=O)Nc2ccc(OCc3ccnc(Nc4cnc(C(=O)N5CCC5)cn4)c3)c3ccccc23)cc1 [Example 128, 1-(4-((2-((5-(azetidine-1-carbonyl)pyrazin-2-yl)amino)pyridin-4-yl)methoxy)naphthalen-1-yl)-3-(3-(tert-butyl)-1-(p-tolyl)-1H-pyrazol-5-yl)urea]",55,> 14700
"COC1CN(C(=O)c2cnc(Nc3cc(COc4ccc(NC(=O)Nc5cc(C(C)(C)C)nn5-c5cccc(C)c5)c5ccccc45)ccn3)cn2)C1 [Example 224, 1-(3-(tert-butyl)-1-(m-tolyl)-1H-pyrazol-5-yl)-3-(4-((2-((5-(3-methoxyazetidine-1-carbonyl)pyrazin-2-yl)amino)pyridin-4-yl)methoxy)naphthalen-1-yl)urea]",54,> 14000

# These reach a lower IC50 [1]. Values come first.
IC50 [1] [nM],IC50 (p38MAPKγ (MAPK12)) [nM],SMILES
18,1700,"Cc1ccc(-n2nc(C(C)(C)C)cc2NC(=O)Nc2ccc(OCc3ccnc(Nc4cnc(C(=O)N5CC[C@@H](F)C5)cn4)c3)c3ccccc23)cc1 [Example 245, (R)-1-(3-(tert-butyl)-1-(p-tolyl)-1H-pyrazol-5-yl)-3-(4-((2-((5-(3-fluoropyrrolidine-1-carbonyl)pyrazin-2-yl)amino)pyridin-4-yl)methoxy)naphthalen-1-yl)urea]"
14,144,COCCN(C)C(=O)c1cnc(Nc2cc(COc3ccc(NC(=O)Nc4cc(C(C)(C)C)nn4-c4ccc(C)cc4)c4ccccc34)ccn2)cn1 [Example 60]
14,240,"COCCNC(=O)c1cnc(Nc2cc(COc3ccc(NC(=O)Nc4cc(C(C)(C)C)nn4-c4cccc(C)c4)c4ccccc34)ccn2)cn1 [Example 152, 5-((4-(((4-(3-(3-(tert-butyl)-1-(m-tolyl)-1H-pyrazol-5-yl)ureido)naphthalen-1-yl)oxy)methyl)pyridin-2-yl)amino)-N-(2-methoxyethyl) pyrazine-2-carboxamide]"
13,175,"Cc1ccc(-n2nc(C(C)(C)C)cc2NC(=O)Nc2ccc(OCc3ccnc(Nc4cncc(NC5CC5)n4)c3)c3ccccc23)cc1 [Example 119, 1-(3-(tert-butyl)-1-(p-tolyl)-1H-pyrazol-5-yl)-3-(4-((2-((6-(cyclopropylamino)pyrazin-2-yl)amino)pyridin-4-yl)methoxy)naphthalen-1-yl)urea]"
13,247,"COc1ccc(-n2nc(C(C)(C)C)cc2NC(=O)Nc2ccc(OCc3ccnc(Nc4cnccn4)c3)c3ccccc23)cc1F [Example 148, 1-(3-(tert-butyl)-1-(3-fluoro-4-methoxyphenyl)-1H-pyrazol-5-yl)-3-(4-((2-(pyrazin-2-ylamino)pyridin-4-yl)methoxy)naphthalen-1-yl)urea]"
12,80,"CC(=O)N1CCN(C(=O)c2cnc(Nc3cc(COc4ccc(NC(=O)Nc5cc(C(C)(C)C)nn5-c5ccc(C)cc5)c5ccccc45)ccn3)cn2)CC1 [Example 240, 1-(4-((2-((5-(4-acetyl-piperazine-1-carbonyl)pyrazin-2-yl)amino)pyridin-4-yl)methoxy)naphthalen-1-yl)-3-(3-(tert-butyl)-1-(p-tolyl)-1H-pyrazol-5-yl)urea]"
11,> 13800,"CO[C@@H]1CCN(C(=O)c2cnc(Nc3cc(COc4ccc(NC(=O)Nc5cc(C(C)(C)C)nn5-c5cccc(C)c5)c5ccccc45)ccn3)cn2)C1 [Example 199, (R)-1-(3-(tert-butyl)-1-(m-tolyl)-1H-pyrazol-5-yl)-3-(4-((2-((5-(3-methoxy-pyrrolidine-1-carbonyl)pyrazin-2-yl)amino)pyridin-4-yl)methoxy)naphthalen-1-yl)urea]"
7.7,56,"CC(C)(C)c1cc(NC(=O)Nc2ccc(OCc3ccnc(Nc4cnccn4)c3)c3ccccc23)n(-c2cccc(CO)c2)n1 [Example 174, 1-(3-(tert-butyl)-1-(3-(hydroxymethyl)phenyl)-1H-pyrazol-5-yl)-3-(4-((2-(pyrazin-2-ylamino)pyridin-4-yl)methoxy)naphthalen-1-yl)urea]"
6.8,2340,"CCc1ccc(-n2nc(C(C)(C)C)cc2NC(=O)Nc2ccc(OCc3ccnc(Nc4cnc(CO)cn4)c3)c3ccccc23)cc1 [Example 164, 1-(3-(tert-butyl)-1-(4-ethylphenyl)-1H-pyrazol-5-yl)-3-(4-((2-((5-(hydroxymethyl)pyrazin-2-yl)amino)pyridin-4-yl)methoxy)naphthalen-1-yl) urea]"
4.7,51,"Cc1ccc(-n2nc(C(C)(C)C)cc2NC(=O)Nc2ccc(OCc3ccnc(Nc4cnc(C(=O)N5C[C@@H](O)[C@H](O)C5)cn4)c3)c3ccccc23)cc1 [Example 248, 1-(3-(tert-butyl)-1-(p-tolyl)-1H-pyrazol-5-yl)-3-(4-((2-((5-((3R,4R)-3,4-dihydroxy-pyrrolidine-1-carbonyl)pyrazin-2-yl)amino)pyridin-4-yl)methoxy)naphthalen-1-yl)urea]"
